Assay [1] concerns the target T1, hcGAS (Homo sapiens, UniProt Q8N884). As to the kind of experiment: hcGAS LCMS assay (direct measurement of cGAMP production). The class given is biochemical. As to conditions: 0.5 nM hcGAS, 100 μM ATP, 100 μM GTP, 25 nM dsDNA, 4 h incubation. In short, it runs like this:
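Direct LC/MS readout of cGAMP formed: 4-h enzyme–substrate incubation with compound, stopped by acetonitrile/water quench carrying isotope-labelled cGAMP (0.15 mM) as standard. Potency reported as IC50 ranges.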

The target in assay [2] is T1, hcGAS. As to the kind of experiment: hcGAS Kinase-Glo assay (ATP depletion). It counts as biochemical. As to conditions: 40 nM hcGAS, 100 μM ATP, 100 μM GTP, 25 nM dsDNA, 3 h incubation. The gist of the method:
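Human cGAS activity measured indirectly as ATP depletion by Kinase-Glo luminescence, following the Lama et al. method with modified conditions. Output is IC50, binned into potency categories.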
(Kinase-Glo reads ATP consumption through a luciferase reaction.)

This note sets out measurements from US20240270740A1, “INHIBITORS OF CYCLIC GMP-AMP SYNTHASE AND USES THEREOF” (Ventus Therapeutics U.S., Inc., priority 2022, published 2024).

As usually defined, the IC50 is the concentration that gives 50% inhibition. Higher therefore signals a need for much substance.

T1 sequence (Q8N884 whole entry): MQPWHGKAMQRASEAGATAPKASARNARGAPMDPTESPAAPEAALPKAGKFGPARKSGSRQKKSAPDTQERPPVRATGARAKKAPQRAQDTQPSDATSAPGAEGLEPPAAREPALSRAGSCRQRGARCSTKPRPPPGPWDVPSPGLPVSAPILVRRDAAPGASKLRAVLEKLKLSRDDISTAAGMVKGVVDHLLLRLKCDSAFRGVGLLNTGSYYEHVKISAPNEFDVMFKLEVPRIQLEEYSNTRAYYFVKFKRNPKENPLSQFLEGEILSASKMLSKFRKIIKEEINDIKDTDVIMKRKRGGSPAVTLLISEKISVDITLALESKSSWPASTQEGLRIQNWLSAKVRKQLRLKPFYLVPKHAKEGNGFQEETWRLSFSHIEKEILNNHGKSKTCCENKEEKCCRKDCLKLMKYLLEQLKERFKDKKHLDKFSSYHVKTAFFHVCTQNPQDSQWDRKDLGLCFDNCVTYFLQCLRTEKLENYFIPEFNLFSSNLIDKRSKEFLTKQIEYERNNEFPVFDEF

As for `COc1c(NC23CC(C2)C3)cc(C(=O)Nc2nnc(-n3nccc3C)s2)oc1=O` [Compound 182, 4-(bicyclo[1.1.1]pentan-1-ylamino)-3-methoxy-N-(5-(5-methyl-1H-pyrazol-1-yl)-1,3,4-thiadiazol-2-yl)-2-oxo-2H-pyran-6-carboxamide], the figures for the IC50 at hcGAS [1] and against hcGAS [2] were 5 to 20 nM and 10 to 30 nM, respectively.
For `COc1c(N(C)C)cc(C(=O)Nc2nnc(-n3nccc3C)s2)oc1=O` [Compound 106, 4-(dimethylamino)-3-methoxy-N-(5-(5-methyl-1H-pyrazol-1-yl)-1,3,4-thiadiazol-2-yl)-2-oxo-2H-pyran-6-carboxamide], the IC50 lay within 20 to 60 nM on hcGAS [1] and 30 to 100 nM against hcGAS [2].
As for `COc1c(N2C[C@H](OC)[C@@H](OC)C2)cc(C(=O)Nc2nnc(-n3nccc3C)s2)oc1=O` (racemic) [Rac-92, 4-((3S,4S)-3,4-dimethoxypyrrolidin-1-yl)-3-methoxy-N-(5-(5-methyl-1H-pyrazol-1-yl)-1,3,4-thiadiazol-2-yl)-2-oxo-2H-pyran-6-carboxamide], the values for the IC50 against hcGAS [1] and against hcGAS [2] were 5 to 20 nM and 10 to 30 nM, respectively.
Consider `COc1c(N[C@H]2CC[C@@H](O)CC2)cc(C(=O)Nc2nnc(-n3nccc3C)s2)oc1=O` [Compound 220], for which the IC50 against hcGAS [1] is 5 to 20 nM; against hcGAS [2], 10 to 30 nM.
Take `COc1c(N2CC[C@@H](O)C2)cc(C(=O)Nc2nnc(-n3nccc3C)s2)oc1=O` [Compound 30, (R)-4-(3-hydroxypyrrolidin-1-yl)-3-methoxy-N-(5-(5-methyl-1H-pyrazol-1-yl)-1,3,4-thiadiazol-2-yl)-2-oxo-2H-pyran-6-carboxamide]: the 50% inhibitory concentration (IC50) was in the range of 5 to 20 nM on hcGAS [1] and 10 to 30 nM against hcGAS [2].
`COc1c(N[C@H]2CCC[C@@H]2OC)cc(C(=O)Nc2nnc(-n3nccc3C)s2)oc1=O` (racemic) [Rac-107, 3-methoxy-4-(((1S,2S)-2-methoxycyclopentyl)amino)-N-(5-(5-methyl-1H-pyrazol-1-yl)-1,3,4-thiadiazol-2-yl)-2-oxo-2H-pyran-6-carboxamide]: the results for the IC50 at hcGAS [1] and on hcGAS [2] were 5 to 20 nM and less than 10 nM, respectively.
For `COc1c(NC[C@@H]2CCCO2)cc(C(=O)Nc2nnc(-n3nccc3C)s2)oc1=O` [Compound 66, (S)-3-methoxy-N-(5-(5-methyl-1H-pyrazol-1-yl)-1,3,4-thiadiazol-2-yl)-2-oxo-4-(((tetrahydrofuran-2-yl)methyl)amino)-2H-pyran-6-carboxamide], the IC50 lay in the range of 5 to 20 nM against hcGAS [1] and 10 to 30 nM on hcGAS [2].
In the case of `COc1c(N[C@H]2CCCC[C@H]2O)cc(C(=O)Nc2nnc(-n3nccc3C)s2)oc1=O` (racemic) [Rac-189, 4-(((1S,2R)-2-hydroxycyclohexyl)amino)-3-methoxy-N-(5-(5-methyl-1H-pyrazol-1-yl)-1,3,4-thiadiazol-2-yl)-2-oxo-2H-pyran-6-carboxamide], the results for the IC50 against hcGAS [1] and at hcGAS [2] were 5 to 20 nM and 10 to 30 nM, respectively.
As to `COc1c(NC23CC(C(C)(C)O)(C2)C3)cc(C(=O)Nc2nnc(-n3nccc3C)s2)oc1=O` [Compound 117, 4-((3-(2-hydroxypropan-2-yl)bicyclo[1.1.1]pentan-1-yl)amino)-3-methoxy-N-(5-(5-methyl-1H-pyrazol-1-yl)-1,3,4-thiadiazol-2-yl)-2-oxo-2H-pyran-6-carboxamide], the IC50 against hcGAS [1] fell in the range of 5 to 20 nM; on hcGAS [2], 10 to 30 nM.
On to `COc1c(N[C@H]2CCC[C@H]2O)cc(C(=O)Nc2nnc(-c3c(Cl)ccn3C)s2)oc1=O` (racemic) [Rac-188, N-(5-(3-chloro-1-methyl-1H-pyrrol-2-yl)-1,3,4-thiadiazol-2-yl)-4-(((1S,2R)-2-hydroxycyclopentyl)amino)-3-methoxy-2-oxo-2H-pyran-6-carboxamide], for which the IC50 was less than 5 nM on hcGAS [1] and less than 10 nM at hcGAS [2].
The like results for `COC[C@H](C)Nc1cc(C(=O)Nc2nnc(-n3nccc3C)s2)oc(=O)c1OC` [Compound 64, (S)-3-methoxy-4-((1-methoxypropan-2-yl)amino)-N-(5-(5-methyl-1H-pyrazol-1-yl)-1,3,4-thiadiazol-2-yl)-2-oxo-2H-pyran-6-carboxamide] were, in that order, 20 to 60 nM and 30 to 100 nM.
The corresponding values for `COCCNc1cc(C(=O)Nc2nnc(-c3cscc3Cl)s2)oc(=O)c1OC` [Compound 136, N-(5-(4-chlorothiophen-3-yl)-1,3,4-thiadiazol-2-yl)-3-methoxy-4-((2-methoxyethyl)amino)-2-oxo-2H-pyran-6-carboxamide] are 5 to 20 nM and 10 to 30 nM.
As to `COc1c(NC(C)C)cc(C(=O)Nc2nnc(-n3nccc3C)s2)oc1=O` [Compound 179, 4-(isopropylamino)-5-methoxy-N-[5-(5-methylpyrazol-1-yl)-1,3,4-thiadiazol-2-yl]-6-oxopyran-2-carboxamide], the figures for the IC50 at hcGAS [1] and at hcGAS [2] were 5 to 20 nM and 30 to 100 nM, respectively.
The like results for `COc1c(N[C@@H]2CC[C@@H]2O)cc(C(=O)Nc2nnc(-n3nccc3C)s2)oc1=O` (racemic) [Rac-43, 4-(((1R,2S)-2-hydroxycyclobutyl)amino)-3-methoxy-N-(5-(5-methyl-1H-pyrazol-1-yl)-1,3,4-thiadiazol-2-yl)-2-oxo-2H-pyran-6-carboxamide] were, in that order, 5 to 20 nM and 10 to 30 nM.
As to `COc1c(N[C@H]2CC[C@@H](OC)C2)cc(C(=O)Nc2nnc(-n3nccc3C)s2)oc1=O` (racemic) [Rac-108, 3-methoxy-4-(((cis)-3-methoxycyclopentyl)amino)-N-(5-(5-methyl-1H-pyrazol-1-yl)-1,3,4-thiadiazol-2-yl)-2-oxo-2H-pyran-6-carboxamide], the half-inhibitory concentration (IC50) against hcGAS [1] was 5 to 20 nM; against hcGAS [2], 10 to 30 nM.
Turning to `COc1c(N[C@H]2CC[C@@H](O)C2)cc(C(=O)Nc2nnc(-n3nccc3C)s2)oc1=O` (racemic) [Rac-61, 4-(((1S,3R)-3-hydroxycyclopentyl)amino)-3-methoxy-N-(5-(5-methyl-1H-pyrazol-1-yl)-1,3,4-thiadiazol-2-yl)-2-oxo-2H-pyran-6-carboxamide], the IC50 is 5 to 20 nM at hcGAS [1] and 10 to 30 nM on hcGAS [2].
The like results for `COc1c(NCC(C)(C)O)cc(C(=O)Nc2nnc(-n3nccc3C)s2)oc1=O` [Compound 33, 4-(2-hydroxy-2-methylpropylamino)-5-methoxy-N-(5-(5-methyl-1H-pyrazol-1-yl)-1,3,4-thiadiazol-2-yl)-6-oxo-6H-pyran-2-carboxamide] were, in that order, 20 to 60 nM and 10 to 30 nM.
Take `COc1c(NCCC#N)cc(C(=O)Nc2nnc(-n3nccc3C)s2)oc1=O` [Compound 176, 4-((2-cyanoethyl)amino)-3-methoxy-N-(5-(5-methyl-1H-pyrazol-1-yl)-1,3,4-thiadiazol-2-yl)-2-oxo-2H-pyran-6-carboxamide]: the IC50 lay within 5 to 20 nM against hcGAS [1] and 10 to 30 nM on hcGAS [2].
The corresponding values for `COc1c(NCC(C)(C)OC)cc(C(=O)Nc2nnc(-n3nccc3C)s2)oc1=O` [Compound 120, 3-methoxy-4-((2-methoxy-2-methylpropyl)amino)-N-(5-(5-methyl-1H-pyrazol-1-yl)-1,3,4-thiadiazol-2-yl)-2-oxo-2H-pyran-6-carboxamide] are 5 to 20 nM and 10 to 30 nM.
In the case of `COc1c(N2CCCC2)cc(C(=O)Nc2nnc(-n3nccc3C)s2)oc1=O` [Compound 216, 3-methoxy-N-(5-(5-methyl-1H-pyrazol-1-yl)-1,3,4-thiadiazol-2-yl)-2-oxo-4-(pyrrolidin-1-yl)-2H-pyran-6-carboxamide], the IC50 at hcGAS [1] fell in the range of 5 to 20 nM; on hcGAS [2], 30 to 100 nM.
The corresponding values for `COCC(COC)Nc1cc(C(=O)Nc2nnc(-n3nccc3C)s2)oc(=O)c1OC` [Compound 10, 4-((1,3-dimethoxypropan-2-yl)amino)-3-methoxy-N-(5-(5-methyl-1H-pyrazol-1-yl)-1,3,4-thiadiazol-2-yl)-2-oxo-2H-pyran-6-carboxamide] are 5 to 20 nM and 10 to 30 nM.
With `COc1c(N[C@H]2CCC[C@H]2OC)cc(C(=O)Nc2nnc(-n3nccc3C)s2)oc1=O` (racemic) [Rac-14, 3-methoxy-4-(((1S,2R)-2-methoxycyclopentyl)amino)-N-(5-(5-methyl-1H-pyrazol-1-yl)-1,3,4-thiadiazol-2-yl)-2-oxo-2H-pyran-6-carboxamide], the IC50 at hcGAS [1] was in the range of 5 to 20 nM; against hcGAS [2] it was 10 to 30 nM.
The like results for `COc1c(NCCS(C)(=O)=O)cc(C(=O)Nc2nnc(-n3nccc3C)s2)oc1=O` [Compound 183] were, in that order, 5 to 20 nM and 30 to 100 nM.
As to `COC[C@@H]1CCN(c2cc(C(=O)Nc3nnc(-n4nccc4C)s3)oc(=O)c2OC)C1` [Compound 1, (R)-3-methoxy-4-(3-(methoxymethyl)pyrrolidin-1-yl)-N-(5-(5-methyl-1H-pyrazol-1-yl)-1,3,4-thiadiazol-2-yl)-2-oxo-2H-pyran-6-carboxamide], the IC50 lay in the range of 5 to 20 nM on hcGAS [1] and 10 to 30 nM against hcGAS [2].
For `COc1c(N[C@@H]2CCC[C@@H]2O)cc(C(=O)Nc2nnc(-c3sccc3Cl)s2)oc1=O` (racemic) [Rac-7, N-(5-(3-chlorothiophen-2-yl)-1,3,4-thiadiazol-2-yl)-4-(((cis)-2-hydroxycyclopentyl)amino)-3-methoxy-2-oxo-2H-pyran-6-carboxamide], the IC50 is less than 5 nM on hcGAS [1] and less than 10 nM against hcGAS [2].
The corresponding values for `COc1c(N2CCCC2=O)cc(C(=O)Nc2nnc(-n3nccc3C)s2)oc1=O` [Compound 42, 3-methoxy-N-(5-(5-methyl-1H-pyrazol-1-yl)-1,3,4-thiadiazol-2-yl)-2-oxo-4-(2-oxopyrrolidin-1-yl)-2H-pyran-6-carboxamide] are less than 5 nM and less than 10 nM.
